Results as given in US9855245B2, “Methods for improving lipid profiles using atrasentan” (AbbVie Inc., priority 2013, dated 2018).
Counter-ions that a name gives are not always drawn. Like-named read-outs stand apart in the source and are kept apart here. Non-standard residues stand in square brackets, D forms with d. Residues, ends and D or L forms follow the SMILES beside them.

Legend:
[1] = cited from earlier work
[2] = tested on: subjects with type 2 diabetes and nephropathy; experiment: Example 3: Phase 2b randomized, double-blind, placebo-controlled 8-week study with thoracic bioimpedance; format: in vivo, human; conditions: dose of 0.5 mg
Excerpt: This study also included measurement of thoracic bioimpedance to assess the potential for thoracic fluid retention with atrasentan.
An equal percentage of subjects in all 3 groups experienced an adverse event (81.3%). […] (Table 17).
A mean decrease of 4 ohms in thoracic bioimpedance, as measured by the ZOE® Fluid Status Monitor, is considered clinically indicative of thoracic fluid overload. Mean thoracic bioimpedance fluctuated in all treatment groups over time, with greater mean changes in the 2 atrasentan groups than in the placebo group.

ob-ZSF1 rats = experiment: Example 5: preclinical study of hypotensive synergy, mean arterial pressure; format: in vivo, rat; conditions: 10 mg/kg/day for 12 weeks
Excerpt: In the example, a preclinical animal model is used to evaluate whether atrasentan and an ARB cause a synergistic hypotensive effect.

SMILES: CC(C)C[C@@H]1NC(=O)[C@@H](C(C)C)NC(=O)[C@@H]2CCCN2C(=O)[C@@H](CC(=O)O)NC(=O)[C@@H](Cc2c[nH]c3ccccc23)NC1=O [BQ-123] (cyclo(L[dW][dD]P[dV]))
- mean arterial pressure, mean area under curve +/− SEM ([1]; BQ-123 alone): −2.3 mmHg
- mean arterial pressure, mean area under curve +/− SEM ([1]; BQ-123 plus enalapril): −5.1 mmHg

SMILES: CCCCN(CCCC)C(=O)CN1C[C@H](c2ccc3c(c2)OCO3)[C@@H](C(=O)O)[C@@H]1c1ccc(OC)cc1 [atrasentan HCl]
- reduction in UACR [2]: not demonstrated to result in a statistically significant reduction in UACR

SMILES: CCCCc1nc(Cl)c(CO)n1Cc1ccc(-c2ccccc2-c2nn[nH]n2)cc1 [losartan, reference compound]
- mean arterial pressure (MAP) (ob-ZSF1 rats): significant decrease
